# Values of other authors as cited in patent US12076400B2, “Methods of using a bispecific antigen-binding construct targeting HER2 in combination with CDK4/6 inhibitors for the treatment of breast cancer” (c/o Zymeworks BC Inc., priority 2019, dated 2024).
# System: estrogen receptor (ER)-positive breast cancer cell lines
# Conditions: by blocking progression from G1 into S phase
smiles,measurement,value
"CC(=O)c1c(C)c2cnc(Nc3ccc(N4CCNCC4)cn3)nc2n(C2CCCC2)c1=O [palbociclib, Palbociclib]",Cellular proliferation in vitro,reduced cellular proliferation
